In data set [1] the test system is C. difficile R20291 spores. As to conditions: literature, cited from earlier work.
In data set [2] the target is C. difficile spore germination. To be noted: literature values; read-out: Ki, inhibition of germination; cited from earlier work.
Data set [3] concerns C. difficile 630 strain. To be noted: literature, cited from earlier work; for IC50: read-out: IC50 against 630 strain.
Data set [4] deals with C. difficile R20291 spores. The data set can be described thus: C. difficile spore germination assay (optical density, OD580).
Data set [5] in a line: Incubation with feces / murine microbiota (degradation). As to conditions: 3 days incubation with feces. It counts as in vitro ADME.
Data set [6] deals with C. difficile 630 strain. The data set is described as follows: Spore germination inhibition against C. difficile 630 strain (literature). It counts as cell-based.
The mark [7] stands for this setting: Clostridioides difficile, R20291SPORES, Table 5, 6 mM taurocholate, 12 mM glycine.
[8] abbreviates: Clostridioides difficile, R20291SPORES, read-out: % Germination (125 μM), Table 5, compound 125 μM, 6 mM taurocholate, 12 mM glycine, 100% indicates no inhibition.
[9] abbreviates: Clostridioides difficile, R20291SPORES, read-out: % Germination, Table 3, compound 125 μM, 6 mM taurocholate, 12 mM glycine, ± standard deviation.
Where [10] appears, read: Table 4, compound 125 uM, 6 mM taurocholate, 12 mM glycine, ± standard deviation.
[11] abbreviates: Clostridioides difficile, R20291SPORES, Table 2, 6 mM taurocholate, 12 mM glycine.
The mark [12] stands for this setting: Clostridioides difficile, R20291SPORES, read-out: % Germination, Table 2, compound 125 μM, 6 mM taurocholate, 12 mM glycine, ± standard deviation.

Molecules are shown by their SMILES. “Also recorded” adds a separate entry of the source. Read-outs that look alike come from different tables or passages of the source.

One may read the Ki as a measure of affinity in units of concentration, obtained from inhibition or displacement. A word on the IC50: it is the midpoint of a concentration-inhibition curve. `C[C@H](CCC(=O)Nc1cccc(S(=O)(=O)O)c1)[C@H]1CC[C@H]2[C@@H]3[C@H](O)C[C@@H]4C[C@H](O)CC[C@]4(C)[C@H]3C[C@H](O)[C@]12C` [CamSA]: the “Activity against R20291 strain” value in data set [1] (hypervirulent R20291 strain) was “no inhibitory or prophylactic activity; also recorded: inactive”. In data set [2], the Ki was 50 µM. Moreover, in the data set on C. difficile 630 strain [3], the IC50 was 58 µM and the “Activity against 630 strain” value was “active”.
On to `C[C@H](CCC(=O)Nc1ccccc1)[C@H]1CC[C@H]2[C@@H]3[C@H](O)C[C@@H]4C[C@H](O)CC[C@]4(C)[C@H]3CC[C@]12C` [Compound 53], for which the “Activity against 630 strain” value with C. difficile 630 strain [3] was “inactive up to the maximum tested concentration”. Besides, in data set [4] (setting [7]), it took 4 ± 0.5 µM to reach half-maximal inhibition (IC50). The activity at 125 µM in data set [4] (setting [8]) was 14 ± 0.6%.
On to `C[C@H](CCc1ncc2ccccc2n1)[C@H]1CC[C@H]2[C@@H]3[C@H](O)C[C@@H]4C[C@H](O)CC[C@]4(C)[C@H]3C[C@H](O)[C@]12C` [Compound 29], for which, in data set [5], the “Degradation on incubation with feces” value was “not degraded”. The same molecule yielded an IC50 in data set [4] (Clostridioides difficile, R20291SPORES, Table 3, 6 mM taurocholate, 12 mM glycine) of 22 ± 3 µM. In data set [4] (setting [9]), the activity at 125 µM was 17 ± 3%.
Consider `C[C@H](CCC(=O)O)[C@H]1CC[C@H]2[C@@H]3[C@H](O)C[C@@H]4C[C@H](O)CC[C@]4(C)[C@H]3CC[C@]12C` [chenodeoxycholate], for which the Ki in data set [2] was 378 µM.
Consider `C[C@H](CCC(=O)Nc1cccc(S(=O)(=O)O)c1)[C@H]1CC[C@H]2[C@@H]3[C@H](O)C[C@@H]4C[C@H](O)CC[C@]4(C)[C@H]3CC[C@]12C` [chenodeoxycholic analog of CamSA], for which, in the data set on C. difficile 630 strain [6], the “Potency relative to the cholate derivative CamSA (less potent)” value is given as “approximately 100 fold”. Besides, the IC50 in the data set on C. difficile 630 strain [3] is 6500 µM.
`C[C@H](CCc1nc2ccccc2[nH]1)[C@H]1CC[C@H]2[C@@H]3[C@H](O)C[C@@H]4C[C@H](O)CC[C@]4(C)[C@H]3C[C@H](O)[C@]12C` [Compound 45] gave an IC50 in data set [4] (Table 4, 6 mM taurocholate, 12 mM glycine) of 12 ± 7 µM. Also, the “% Germination” value in data set [4] (setting [10]) is reported as 18 ± 2%.
In data set [4] (setting [11]), `C[C@H](CCC(=O)N1CCc2cc(F)ccc21)[C@H]1CC[C@H]2[C@@H]3[C@H](O)C[C@@H]4C[C@H](O)CC[C@]4(C)[C@H]3C[C@H](O)[C@]12C` [Compound 4] showed an IC50 of 0.4 ± 0.04 µM. For the same molecule, the activity at 125 µM in data set [4] (setting [12]) is 5 ± 3%.
As for `C[C@H](CCC(=O)Nc1ccccc1)[C@H]1CC[C@H]2[C@@H]3CC[C@@H]4C[C@H](O)CC[C@]4(C)[C@H]3CC[C@]12C` [Compound 61], the activity at 125 µM in data set [4] (setting [8]) was found to be 100%.
`C[C@H](CCC(=O)N1CCc2cc(Br)ccc2C1)[C@H]1CC[C@H]2[C@@H]3[C@H](O)C[C@@H]4C[C@H](O)CC[C@]4(C)[C@H]3C[C@H](O)[C@]12C` [Compound 13]: the activity at 125 µM in data set [4] (setting [12]) was 100%.
Take `C[C@H](CCc1nc2ccccc2s1)[C@H]1CC[C@H]2[C@@H]3[C@H](O)C[C@@H]4C[C@H](O)CC[C@]4(C)[C@H]3C[C@H](O)[C@]12C` [Compound 48]: the “% Germination” value in data set [4] (setting [10]) came out at 88 ± 5%.
Consider `C[C@H](CCc1nc2ccccc2o1)[C@H]1CC[C@H]2[C@@H]3[C@H](O)C[C@@H]4C[C@H](O)CC[C@]4(C)[C@H]3C[C@H](O)[C@]12C` [Compound 51], for which the “% Germination” value in data set [4] (setting [10]) was 80 ± 4%.
For `COc1ccc2c(c1)CCN(C(=O)CC[C@@H](C)[C@H]1CC[C@H]3[C@@H]4[C@H](O)C[C@@H]5C[C@H](O)CC[C@]5(C)[C@H]4C[C@H](O)[C@]13C)C2` [Compound 12], in data set [4] (setting [12]), the activity at 125 µM was 100%.
For `C=CCN(CC=C)C(=O)CC[C@@H](C)[C@H]1CC[C@H]2[C@@H]3[C@H](O)C[C@@H]4C[C@H](O)CC[C@]4(C)[C@H]3C[C@H](O)[C@]12C` [Compound 15], the IC50 in data set [4] (setting [11]) worked out at 8 ± 3 µM. Moreover, the activity at 125 µM in data set [4] (setting [12]) turned out to be 0.9 ± 0.2%.
As for `COc1ccccc1NC(=O)CC[C@@H](C)[C@H]1CC[C@H]2[C@@H]3[C@@H](O)C[C@]4(C)C[C@H](O)CC[C@]4(C)[C@H]3CC[C@]12C` [Compound 66], the activity at 125 µM in data set [4] (setting [8]) was determined as 100%.
Turning to `C[C@H](CCc1ncc2cc(F)c(F)cc2n1)[C@H]1CC[C@H]2[C@@H]3[C@H](O)C[C@@H]4C[C@H](O)CC[C@]4(C)[C@H]3C[C@H](O)[C@]12C` [Compound 41], the activity at 125 µM in data set [4] (setting [9]) was determined as 70 ± 23%.
In the case of `Cc1ccc(F)cc1NC(=O)CC[C@@H](C)[C@H]1CC[C@H]2[C@@H]3CC[C@@H]4C[C@H](O)CC[C@]4(C)[C@H]3C[C@H](O)[C@]12C` [Compound 60], the activity at 125 µM in data set [4] (setting [8]) came out at 65 ± 0.9%.
Molecule `C[C@H](CCc1nc2ccccc2[nH]1)[C@H]1CC[C@H]2[C@@H]3[C@H](O)C[C@@H]4C[C@H](O)CC[C@]4(C)[C@H]3C[C@H](O)[C@]12C` [Compound 46] showed an IC50 in data set [4] (Clostridioides difficile, R20291SPORES, Table 4, 6 mM taurocholate, 12 mM glycine) of 6 ± 1 µM. The activity at 125 µM in data set [4] (Clostridioides difficile, R20291SPORES, read-out: % Germination, Table 4, compound 125 uM, 6 mM taurocholate, 12 mM glycine, ± standard deviation) was 23 ± 5%.
`C[C@H](CCC(=O)Nc1ccccc1)[C@H]1CC[C@H]2[C@@H]3CCC4CCCC[C@]4(C)[C@H]3CC[C@]12C` (stereo partly shown) [N-(Phenyl)-cholan-24-amide]: the IC50 in data set [1] (R20291 strain, read-out: IC50 against R20291 strain) was 1.8 µM; with C. difficile 630 strain [3], 270 µM.
On to `C[C@H](CCC(=O)N1CCc2ccccc21)[C@H]1CC[C@H]2[C@@H]3[C@H](O)C[C@@H]4C[C@H](O)CC[C@]4(C)[C@H]3C[C@H](O)[C@]12C` [Compound 1], for which the IC50 is 1 ± 0.3 µM in data set [4] (setting [11]) and 1 µM in data set [4] (Clostridioides difficile, R20291SPORES, read-out: IC50 against the R20291 strain, R20291 strain). Further, the activity at 125 µM in data set [4] (setting [12]) was determined as 4 ± 1%.
The molecule `COc1ccccc1NC(=O)CC[C@@H](C)[C@H]1CC[C@H]2[C@@H]3CC[C@@H]4C[C@H](O)CC[C@]4(C)[C@H]3CC[C@]12C` [Compound 58] returned an IC50 in data set [4] (setting [7]) of 2.4 ± 0.3 µM. In data set [4] (Table 5, compound 125 μM, 6 mM taurocholate, 12 mM glycine, 100% indicates no inhibition), the “% Germination (125 μM)” value stood at 0.4 ± 3%.
Consider `C[C@H](CCc1nc2ccccc2s1)[C@H]1CC[C@H]2[C@@H]3[C@H](O)C[C@@H]4C[C@H](O)CC[C@]4(C)[C@H]3C[C@H](O)[C@]12C` [Compound 49], for which the “% Germination” value in data set [4] (setting [10]) is 81 ± 2%.

The values are drawn from patent publication US12220421B2, “Inhibitors of C. difficile spore germination” (THE BOARDS OF REGENTS OF THE NEVADA SYSTEM OF HIGHER …, priority 2021, dated 2025).
